Consider one compound from US10201587B2, “Methods of inhibiting and treating biofilms using glycopeptide antibiotics” (MELINTA THERAPEUTICS, INC., priority 2008, dated 2019).

Values after ≈ are worked out from the molar mass of the structure shown. Where two headings read alike, the source gives them in different places.

The subject of test [1] is MRSA ATCC 33591. Briefly: Time-kill in nutrient-depleted CAMHB. The class given is cell-based, S. aureus. As to conditions: stationary-phase, free-trough concentration 0.5 μg/mL, 24 hours. As to the method: (§1) Nutrient-depleted CAMHB from each respective strain was prepared by 3 rounds of inoculation of CAMHB with exponential-phase bacteria, incubation overnight at 37° C. with rotation (225 rpm) and centrifugation (8000×g for 30 minutes) to remove bacteria. After the final round of inoculation, growth and centrifugation, the pH of the nutrient-depleted CAMHB was adjusted to pH=7.0 and the spent medium was filter-sterilized using a […] membrane (Corning Incorporated, Corning, N.Y.).
(§2) Nutrient-depleted CAMHB containing diluted antimicrobial agents was inoculated with stationary-phase bacteria from overnight cultures of the S. aureus strains at approximately 10^7 colony-forming units (CFU)/mL. Other experiments compared the killing of stationary- and exponential-phase S. aureus ATCC 29213 when inoculated into nutrient-depleted CAMHB containing the test agents. For assays involving daptomycin, nutrient-depleted CAMHB was supplemented with 50 μg/ml CaCl2 (8). All time-kill studies were performed in 96-well deep-well plates at 37° C. with rotation (225 rpm) in a total volume of 750 μL. Bacteria were enumerated by serial-dilution plating. Bacteriostatic and bactericidal activity of the antimicrobial agents were defined as a reduction in viable cell counts of <3 or ≥3 log at 24 hours relative to the starting inoculum, respectively (33). Experiments were repeated at least three times and produced similar results; results from one experiment are presented.

The test system of test [2] is MSSA ATCC 29213. The test can be described thus: Time-kill in nutrient-depleted CAMHB. It is filed as cell-based, S. aureus. As to conditions: stationary-phase, estimated free-trough concentration 0.5 μg/mL, 24 hours. As to the method: as §1, §2
The test system of test [3] is VRSA VRS5. The test can be described thus: Time-kill in nutrient-depleted CAMHB. The class given is cell-based, S. aureus. As to the method:
as §1, §2

The test system of test [4] is MRSA ATCC 33591. The test can be described thus: MBEC system in vitro biofilm (MIC and MBEC). The class given is cell-based, S. aureus. As to the method: (§3) The commercially-available MBEC™ system (Innovotech; Edmonton, AB, Canada) was used following the manufacturer's protocol (17) to establish in vitro biofilms of S. aureus and to determine the minimal biofilm eradication concentration (MBEC) of oritavancin and comparator antimicrobial agents. The MBEC represents the concentration of antimicrobial agent required to sterilize the biofilm after 24 hours of exposure. The MBEC™ system also allows for the determination of the minimal inhibitory concentration (MIC) of the test agent against planktonic cells under the conditions of the biofilm assay.
(§4) 150 μL of bacterial inocula at 10^7 CFU/mL in tryptic soy broth was aliquoted into each well of an MBEC plate. Biofilms were established for 24 hours in a rotary incubator at 37° C. and 150 rpm. For experiments involving 72-hour biofilms, peg lids were transferred each day to 96-well plates containing 150 μL/well of fresh tryptic soy broth and incubated another 24 hours. Peg lids with established biofilms were washed once in sterile saline (200 μL/well) and then placed in plates containing antimicrobial agents diluted in CAMHB (200 μL/well). Antimicrobial agents were serially diluted in CAMHB in 96-well plates and peg lids were exposed for 24 hours or for the indicated times. Following antimicrobial challenge, peg lids were washed once in sterile saline then placed in recovery plates containing CAMHB (200 μL/well). The recovery plates were sonicated for 5 minutes in an ultrasonic sonicating bath (VWR Aquasonic model 550D) at the maximum setting then incubated for 24 hours and the MBECs recorded. MBECs were determined from at least three independent experiments; results represent the ranges of MBECs obtained. To enumerate the biofilm colony forming units (CFUs) on individual control pegs, pegs were broken off the lid using sterile forceps placed in 1 ml sterile saline, sonicated for 5 min and vortexed for 1 min at the highest setting. Bacteria were then enumerated by serial-dilution plating.
(§5) To prevent loss of oritavancin due to binding to vessel surfaces (3), the CLSI now recommends inclusion of 0.002% polysorbate-80 for oritavancin broth microdilution MIC determinations (9).

Test [5] has as its system MSSA ATCC 29213. Briefly: MBEC system in vitro biofilm (MIC and MBEC). It is filed as cell-based, S. aureus. As to conditions: for MIC: Staphylococcus aureus. As to the method: as §3, §4, §5
In test [6] the test system is VRSA VRS5. Briefly: MBEC system in vitro biofilm (MIC and MBEC). It is filed as cell-based, S. aureus. As to the method: as §3, §4, §5
Test [7] relates to Staphylococcus epidermidis ATCC 35984. The test can be described thus: Prevention of in vitro biofilm formation on coated silicone tubing. The class given is cell-based. As to conditions: silicone tubing incubated overnight in 20 mg/ml solution; inoculum 10^5 or 10^7 CFU/ml. As to the method: Silicone tubing (0.040″ inner-diameter by 0.085″ outer-diameter by 0.023″ wall thickness; VWR International) was cut into 1 cm lengths then cut longitudinally in half. Cut tubing pieces were sterilized overnight in 99% ethanol. Tubing pieces were rinsed in 2 ml of sterile water then incubated overnight at room temperature in 20 mg/ml of either oritavancin or chloroeremomycin solution in water. Control tubing pieces were incubated in water as described. The following day, tubing pieces were rinsed in 2 ml of water then incubated with Staphylococcus epidermis ATCC 35984 at an inoculum density of either 10^5 CFU/ml or 10^7 CFU/ml in tryptic soy broth at 37° C. with rotation at 150 rpm in a rotational incubator. Tubing pieces were rinsed in 2 ml of sterile physiologic saline and bacteria in the biofilm formed on the silicone tubing were recovered by sonicating the tubing pieces in 1 ml of sterile physiologic saline in a sonicating water bath (VWR Aquasonic model 550D). Recovered bacteria were enumerated by serial dilution plating.

Where [8] appears, read: 24-hour biofilm, 24 hours of exposure, oritavancin without polysorbate-80.

With `CN[C@H](CC(C)C)C(=O)N[C@H]1C(=O)N[C@@H](CC(N)=O)C(=O)N[C@H]2C(=O)N[C@H]3C(=O)N[C@H](C(=O)N[C@H](C(=O)O)c4cc(O)cc(O)c4-c4cc3ccc4O)[C@H](O[C@H]3C[C@](C)(N)[C@@H](O)[C@H](C)O3)c3ccc(c(Cl)c3)Oc3cc2cc(c3O[C@@H]2O[C@H](CO)[C@@H](O)[C@H](O)[C@H]2O[C@H]2C[C@](C)(NCc3ccc(-c4ccc(Cl)cc4)cc3)[C@@H](O)[C@H](C)O2)Oc2ccc(cc2Cl)[C@H]1O` [Oritavancin, N-(4-(4-chlorophenyl)benzyl)A82846B], the “reduction in viable cell counts” value was “approx 0.4 log” in the test with MRSA ATCC 33591 [1]; “approx 2.9 log” in the test on MSSA ATCC 29213 [2]; “approx 1.2 log” in the test on VRSA VRS5 [3] (stationary-phase, free-trough concentration 0.5 μg/mL, 24 hours). Also, the “activity at the 24-hour time point” value in the test with VRSA VRS5 [3] (stationary-phase inoculum, fCmax 800 (16 μg/mL)) is “bactericidal (Bacteriostatic and bactericidal activity of the antimicrobial agents were defined as a reduction in viable cell counts of <3 or ≥3 log at 24 hours relative to the starting inoculum, respectively)”. Further, in the test on VRSA VRS5 [3] (stationary-phase, fCmax, 24 hours), the “decrease in viable cell counts” value is listed as “approx 2.2 log”. Also, the MBEC was 0.5 to 4 µg/mL in the test with MRSA ATCC 33591 [4] (setting [8]); 4 µg/mL in the test with MSSA ATCC 29213 [5] (24-hour biofilm, 1 hour exposure); 2 to 4 µg/mL with MSSA ATCC 29213 [5] (setting [8]); 8 to 32 µg/mL in the test with MSSA ATCC 29213 [5] (72-hour biofilms); 2 to 8 µg/mL in the test with VRSA VRS5 [6] (setting [8]). The MIC is 0.5 to 4 µg/mL (≈ 0.279 to 2.23 µM) against MRSA ATCC 33591 [4] (Staphylococcus aureus, 24 h); 2 µg/mL (≈ 1.12 µM) against MSSA ATCC 29213 [5] (24 h); 4 to 32 µg/mL (≈ 2.23 to 17.8 µM) with MSSA ATCC 29213 [5] (72 h, read-out: planktonic MIC); 2 to 8 µg/mL (≈ 1.12 to 4.46 µM) in the test with VRSA VRS5 [6] (Staphylococcus aureus, VRSA, 24 h). Besides, the “MBEC relative to respective planktonic MIC” value with MSSA ATCC 29213 [5] (72-hour biofilms, within each experiment) is “no more than one doubling dilution higher”. Besides, the “planktonic MIC relative to CLSI quality control range” value in the test on MSSA ATCC 29213 [5] (MBEC assay) is on record as “within quality control range”. Also, in test [7], the “activity on a coated surface against biofilm formation” value is reported as “significant activity”.
